Key:
CDK6/cyclin D3 = CDK6/cyclin D3 (Homo sapiens, UniProt Q00534); test: Inhibition of CDK6/Cyclin-D3 (unknown origin) using histoneH1 as substrate after 90 mins by ADP-Glo assay; assay type: protein-complex assay
[1] = Half life in Sprague-Dawley rat at 2 mg/kg, iv administered as single dose by LC-MS/MS analysis; assay type: ADME, organism-based; details: in vivo
[2] = Half life in Sprague-Dawley rat at 5 mg/kg, po administered as single dose by LC-MS/MS analysis; assay type: ADME, organism-based; details: in vivo
[3] = Oral bioavailability in Sprague-Dawley rat at 5 mg/kg administered as single dose by LC-MS/MS analysis; assay type: ADME, organism-based; details: Sprague-Dawley, in vivo
[4] = biological target: CDK8/Cyclin C (Homo sapiens) (UniProt P49336+P24863); test: Inhibition of recombinant full length human His-tagged CDK8/Cyclin-C expressed in baculovirus expression system at 0.1 uM by LanthaScreen assay relative to control
[5] = biological target: RAC-beta serine/threonine-protein kinase (Homo sapiens) (UniProt P31751); test: Inhibition of recombinant full length human His-tagged AKT2 expressed in baculovirus expression system at 0.1 uM by TR-FRET assay relative to control
[6] = biological target: Dual specificity protein kinase CLK1 (Homo sapiens) (UniProt P49759); test: Inhibition of recombinant human GST-tagged CLK1 expressed in Escherichia coli at 0.1 uM by Z'-Lyte assay relative to control
Dual specificity protein kinase CLK1 (Homo sapiens), sequence (P49759 whole entry, looked up): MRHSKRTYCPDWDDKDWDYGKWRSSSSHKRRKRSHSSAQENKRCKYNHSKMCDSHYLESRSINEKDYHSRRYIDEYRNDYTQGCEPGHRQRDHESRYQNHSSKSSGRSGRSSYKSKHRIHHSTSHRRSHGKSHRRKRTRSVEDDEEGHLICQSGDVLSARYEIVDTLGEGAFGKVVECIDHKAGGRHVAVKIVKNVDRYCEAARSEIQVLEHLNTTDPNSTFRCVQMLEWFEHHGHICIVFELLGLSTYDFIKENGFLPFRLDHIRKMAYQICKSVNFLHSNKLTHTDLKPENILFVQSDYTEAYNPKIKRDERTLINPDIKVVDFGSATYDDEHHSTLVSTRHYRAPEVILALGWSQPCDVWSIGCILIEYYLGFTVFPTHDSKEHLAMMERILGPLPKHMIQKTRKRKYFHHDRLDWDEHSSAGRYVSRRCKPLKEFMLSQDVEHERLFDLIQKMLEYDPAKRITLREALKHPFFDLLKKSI

[7] = biological target: Beta-adrenergic receptor kinase 1 (Homo sapiens) (UniProt P25098); test: Inhibition of recombinant human full length His-tagged GRK2 expressed in baculovirus expression system at 0.1 uM by Z'-Lyte assay relative to control
[8] = biological target: Serine/threonine-protein kinase MARK1 (Homo sapiens) (UniProt Q9P0L2); test: Inhibition of recombinant human full length GST-tagged MARK1 expressed in baculovirus expression system at 0.1 uM by Z'-Lyte assay relative to control
Serine/threonine-protein kinase MARK1 (Homo sapiens), sequence (Q9P0L2 whole entry, looked up): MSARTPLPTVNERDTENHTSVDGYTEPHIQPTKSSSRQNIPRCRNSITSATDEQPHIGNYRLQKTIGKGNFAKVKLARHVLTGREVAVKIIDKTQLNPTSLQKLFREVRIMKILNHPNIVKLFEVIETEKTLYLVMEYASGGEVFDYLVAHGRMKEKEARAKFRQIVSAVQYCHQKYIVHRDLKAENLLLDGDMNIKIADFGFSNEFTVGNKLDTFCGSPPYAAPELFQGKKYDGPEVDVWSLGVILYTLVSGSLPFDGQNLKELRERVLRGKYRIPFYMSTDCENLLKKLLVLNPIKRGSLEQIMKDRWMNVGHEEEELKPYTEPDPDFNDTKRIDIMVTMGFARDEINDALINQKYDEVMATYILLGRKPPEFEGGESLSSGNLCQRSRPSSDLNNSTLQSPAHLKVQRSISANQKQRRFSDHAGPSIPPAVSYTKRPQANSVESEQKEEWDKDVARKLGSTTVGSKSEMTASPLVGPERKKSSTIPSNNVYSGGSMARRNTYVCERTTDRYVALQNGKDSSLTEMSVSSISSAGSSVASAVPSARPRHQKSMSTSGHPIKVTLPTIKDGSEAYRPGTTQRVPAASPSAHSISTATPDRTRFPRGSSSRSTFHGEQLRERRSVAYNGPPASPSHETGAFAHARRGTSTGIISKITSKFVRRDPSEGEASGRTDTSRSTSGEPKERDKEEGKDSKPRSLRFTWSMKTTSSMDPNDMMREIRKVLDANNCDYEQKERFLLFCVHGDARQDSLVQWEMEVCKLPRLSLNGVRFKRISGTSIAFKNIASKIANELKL

[9] = biological target: Mitogen-activated protein kinase 14 (Homo sapiens) (UniProt Q16539); test: Inhibition of recombinant human full length GST-tagged p38alpha expressed in Escherichia coli at 0.1 uM by Z'-Lyte assay relative to control
[10] = biological target: Serine/threonine-protein kinase PAK 2 (Homo sapiens) (UniProt Q13177); test: Inhibition of recombinant human full length GST-tagged PAK2 expressed in baculovirus expression system at 0.1 uM by Z'-Lyte assay relative to control
[11] = biological target: Proto-oncogene tyrosine-protein kinase receptor Ret (Homo sapiens) (UniProt P07949); test: Inhibition of recombinant human GST-tagged RET cytoplasmic domain (658 to 1114 residues) expressed in baculovirus expression system at 0.1 uM by Z'-Lyte assay relative to control
[12] = biological target: CDK6/cyclin D3 (Homo sapiens) (UniProt P30281+Q00534); test: Inhibition of recombinant full length human GST-tagged CDK6/Cyclin-D3 expressed in baculovirus expression system at 1 uM by TR-FRET assay relative to control
[13] = biological target: Serine/threonine-protein kinase Chk1 (Homo sapiens) (UniProt O14757); test: Inhibition of recombinant full length human His-tagged CHK1 expressed in baculovirus expression system at 1 uM by Z'-Lyte assay relative to control
Serine/threonine-protein kinase Chk1 (Homo sapiens), sequence (O14757 whole entry, canonical isoform): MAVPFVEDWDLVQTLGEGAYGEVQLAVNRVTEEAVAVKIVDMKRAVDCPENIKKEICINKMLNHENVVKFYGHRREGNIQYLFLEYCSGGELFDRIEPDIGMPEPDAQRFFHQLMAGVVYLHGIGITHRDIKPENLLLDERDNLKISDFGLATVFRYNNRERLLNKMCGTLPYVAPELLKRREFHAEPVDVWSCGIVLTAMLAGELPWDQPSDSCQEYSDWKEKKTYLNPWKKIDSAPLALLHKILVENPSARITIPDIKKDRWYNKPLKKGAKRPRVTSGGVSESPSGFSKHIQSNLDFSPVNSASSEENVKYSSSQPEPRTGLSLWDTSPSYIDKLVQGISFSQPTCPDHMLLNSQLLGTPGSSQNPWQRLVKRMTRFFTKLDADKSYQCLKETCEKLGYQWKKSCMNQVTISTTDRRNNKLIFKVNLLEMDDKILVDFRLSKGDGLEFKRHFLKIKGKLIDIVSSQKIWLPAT

[14] = biological target: Casein kinase I isoform gamma-1 (Homo sapiens) (UniProt Q9HCP0); test: Inhibition of recombinant full length human GST-tagged CK1gamma1 expressed in baculovirus expression system at 1 uM by Z'-Lyte assay relative to control
Casein kinase I isoform gamma-1 (Homo sapiens), sequence (Q9HCP0 whole entry, looked up, canonical isoform): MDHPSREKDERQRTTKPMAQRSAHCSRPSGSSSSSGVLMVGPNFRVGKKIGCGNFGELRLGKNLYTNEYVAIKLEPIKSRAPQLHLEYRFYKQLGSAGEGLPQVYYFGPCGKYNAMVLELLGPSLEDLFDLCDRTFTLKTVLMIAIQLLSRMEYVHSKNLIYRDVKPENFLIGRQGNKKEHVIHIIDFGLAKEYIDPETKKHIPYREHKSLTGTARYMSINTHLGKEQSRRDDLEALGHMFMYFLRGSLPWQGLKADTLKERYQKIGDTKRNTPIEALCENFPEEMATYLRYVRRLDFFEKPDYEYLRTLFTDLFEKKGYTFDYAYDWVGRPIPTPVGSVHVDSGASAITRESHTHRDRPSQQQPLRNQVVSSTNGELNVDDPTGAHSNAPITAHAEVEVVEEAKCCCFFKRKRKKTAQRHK

[15] = biological target: G protein-coupled receptor kinase 5 (Homo sapiens) (UniProt P34947); test: Inhibition of recombinant human full length GST-tagged GRK5 expressed in baculovirus expression system at 1 uM by Z'-Lyte assay relative to control
G protein-coupled receptor kinase 5 (Homo sapiens), sequence (P34947 whole entry, looked up): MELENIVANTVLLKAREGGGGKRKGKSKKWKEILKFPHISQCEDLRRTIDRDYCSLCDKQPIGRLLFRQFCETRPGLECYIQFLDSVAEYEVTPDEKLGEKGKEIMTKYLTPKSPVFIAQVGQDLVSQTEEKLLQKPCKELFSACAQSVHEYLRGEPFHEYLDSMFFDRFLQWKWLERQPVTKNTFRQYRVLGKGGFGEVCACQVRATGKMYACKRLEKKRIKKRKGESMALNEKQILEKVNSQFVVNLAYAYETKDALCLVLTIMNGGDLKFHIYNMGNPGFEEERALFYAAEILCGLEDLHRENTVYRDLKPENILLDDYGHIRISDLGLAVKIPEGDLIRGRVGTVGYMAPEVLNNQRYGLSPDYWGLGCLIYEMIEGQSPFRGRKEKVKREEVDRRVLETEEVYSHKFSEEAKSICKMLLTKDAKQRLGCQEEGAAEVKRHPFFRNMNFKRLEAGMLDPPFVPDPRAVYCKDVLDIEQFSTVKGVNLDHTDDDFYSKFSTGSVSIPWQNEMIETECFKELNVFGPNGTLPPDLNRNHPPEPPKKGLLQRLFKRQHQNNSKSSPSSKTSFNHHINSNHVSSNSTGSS

[16] = biological target: Tyrosine-protein kinase ITK/TSK (Homo sapiens) (UniProt Q08881); test: Inhibition of recombinant full length human GST-tagged ITK expressed in baculovirus expression system at 1 uM by TR-FRET assay relative to control
Tyrosine-protein kinase ITK/TSK (Homo sapiens), sequence (Q08881 whole entry, the tested form may be a part): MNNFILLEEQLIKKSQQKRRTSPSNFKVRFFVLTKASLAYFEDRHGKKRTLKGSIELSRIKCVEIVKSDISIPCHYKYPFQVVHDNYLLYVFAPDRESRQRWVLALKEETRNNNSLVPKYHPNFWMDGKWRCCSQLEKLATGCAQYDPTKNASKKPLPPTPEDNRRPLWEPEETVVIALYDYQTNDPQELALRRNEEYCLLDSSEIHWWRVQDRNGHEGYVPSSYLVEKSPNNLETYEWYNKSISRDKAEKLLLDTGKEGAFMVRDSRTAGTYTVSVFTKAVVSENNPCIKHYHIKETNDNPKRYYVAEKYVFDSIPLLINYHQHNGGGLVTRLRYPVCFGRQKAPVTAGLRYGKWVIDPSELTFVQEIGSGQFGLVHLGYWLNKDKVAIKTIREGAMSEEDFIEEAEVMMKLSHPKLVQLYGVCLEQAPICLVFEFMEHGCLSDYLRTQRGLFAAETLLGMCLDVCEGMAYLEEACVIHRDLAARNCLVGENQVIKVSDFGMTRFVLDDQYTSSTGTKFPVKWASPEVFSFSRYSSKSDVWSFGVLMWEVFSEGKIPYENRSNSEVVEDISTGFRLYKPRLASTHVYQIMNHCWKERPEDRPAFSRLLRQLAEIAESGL

[17] = biological target: Vascular endothelial growth factor receptor 2 (Homo sapiens) (UniProt P35968); test: Inhibition of recombinant human His-tagged KDR cytoplasmic domain expressed in baculovirus expression system at 1 uM by Z'-Lyte assay relative to control
[18] = biological target: Serine/threonine-protein kinase 26 (Homo sapiens) (UniProt Q9P289); test: Inhibition of recombinant human full length GST-tagged MST4 expressed in baculovirus expression system at 1 uM by Z'-Lyte assay relative to control
Serine/threonine-protein kinase 26 (Homo sapiens), sequence (Q9P289 2-416 limits assumed): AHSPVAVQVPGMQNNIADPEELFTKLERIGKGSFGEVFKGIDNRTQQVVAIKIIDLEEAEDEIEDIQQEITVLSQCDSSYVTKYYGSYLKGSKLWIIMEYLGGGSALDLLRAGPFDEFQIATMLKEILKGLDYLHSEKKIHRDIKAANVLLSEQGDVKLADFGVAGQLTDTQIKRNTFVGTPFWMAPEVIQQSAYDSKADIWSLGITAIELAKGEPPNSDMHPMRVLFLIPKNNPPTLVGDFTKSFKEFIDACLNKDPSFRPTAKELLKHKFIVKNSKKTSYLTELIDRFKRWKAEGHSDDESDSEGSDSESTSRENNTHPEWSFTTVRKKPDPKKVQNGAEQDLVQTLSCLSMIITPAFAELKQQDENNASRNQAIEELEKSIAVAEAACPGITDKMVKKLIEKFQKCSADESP

[19] = biological target: Serine/threonine-protein kinase PAK 4 (Homo sapiens) (UniProt O96013); test: Inhibition of recombinant human GST-tagged PAK4 expressed in baculovirus expression system at 1 uM by Z'-Lyte assay relative to control
Serine/threonine-protein kinase PAK 4 (Homo sapiens), sequence (O96013 whole entry, looked up): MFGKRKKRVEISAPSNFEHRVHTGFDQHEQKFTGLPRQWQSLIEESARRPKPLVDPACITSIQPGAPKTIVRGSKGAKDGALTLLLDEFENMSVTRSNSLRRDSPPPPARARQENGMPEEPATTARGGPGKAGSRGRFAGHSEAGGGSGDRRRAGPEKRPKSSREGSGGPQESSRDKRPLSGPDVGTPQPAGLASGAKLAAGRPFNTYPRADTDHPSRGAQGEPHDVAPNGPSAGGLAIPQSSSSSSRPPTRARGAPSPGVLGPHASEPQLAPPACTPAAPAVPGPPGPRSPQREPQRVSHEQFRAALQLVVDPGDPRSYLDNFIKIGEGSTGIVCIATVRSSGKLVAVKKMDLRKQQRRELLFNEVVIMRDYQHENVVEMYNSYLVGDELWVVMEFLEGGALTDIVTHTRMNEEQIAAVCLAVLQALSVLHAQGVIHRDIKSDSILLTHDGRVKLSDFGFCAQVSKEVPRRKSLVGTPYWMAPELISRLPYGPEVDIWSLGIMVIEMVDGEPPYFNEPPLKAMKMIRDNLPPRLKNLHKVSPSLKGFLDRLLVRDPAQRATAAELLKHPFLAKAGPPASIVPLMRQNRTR

[20] = biological target: PI3-kinase p110-alpha/p85-alpha (Homo sapiens) (UniProt P27986+P42336); test: Inhibition of recombinant full-length human N-terminal His6-tagged p110alpha/p85alpha expressed in baculovirus infected Sf21 cells at 1 uM by ADP-Glo assay relative to control
[21] = biological target: Phosphatidylinositol 4,5-bisphosphate 3-kinase catalytic subunit beta isoform (Homo sapiens) (UniProt P42338); test: Inhibition of PI3K beta (unknown origin) at 1 uM by ADP-Glo assay relative to control
[22] = biological target: Serine/threonine-protein kinase PLK1 (Homo sapiens) (UniProt P53350); test: Inhibition of recombinant human full length His-tagged PLK1 expressed in baculovirus expression system at 1 uM by Z'-Lyte assay relative to control
[23] = biological target: Protein-tyrosine kinase 6 (Homo sapiens) (UniProt Q13882); test: Inhibition of recombinant human full length His-tagged PTK6 expressed in baculovirus expression system at 1 uM by TR-FRET assay relative to control
[24] = biological target: RAF proto-oncogene serine/threonine-protein kinase (Homo sapiens) (UniProt P04049); test: Inhibition of RAF1 (unknown origin) at 1 uM by TR-FRET assay relative to control
[25] = biological target: Tyrosine-protein kinase Tec (Homo sapiens) (UniProt P42680); test: Inhibition of recombinant human full length His-tagged TEC expressed in baculovirus expression system at 1 uM by TR-FRET assay relative to control
Tyrosine-protein kinase Tec (Homo sapiens), sequence (P42680 whole entry): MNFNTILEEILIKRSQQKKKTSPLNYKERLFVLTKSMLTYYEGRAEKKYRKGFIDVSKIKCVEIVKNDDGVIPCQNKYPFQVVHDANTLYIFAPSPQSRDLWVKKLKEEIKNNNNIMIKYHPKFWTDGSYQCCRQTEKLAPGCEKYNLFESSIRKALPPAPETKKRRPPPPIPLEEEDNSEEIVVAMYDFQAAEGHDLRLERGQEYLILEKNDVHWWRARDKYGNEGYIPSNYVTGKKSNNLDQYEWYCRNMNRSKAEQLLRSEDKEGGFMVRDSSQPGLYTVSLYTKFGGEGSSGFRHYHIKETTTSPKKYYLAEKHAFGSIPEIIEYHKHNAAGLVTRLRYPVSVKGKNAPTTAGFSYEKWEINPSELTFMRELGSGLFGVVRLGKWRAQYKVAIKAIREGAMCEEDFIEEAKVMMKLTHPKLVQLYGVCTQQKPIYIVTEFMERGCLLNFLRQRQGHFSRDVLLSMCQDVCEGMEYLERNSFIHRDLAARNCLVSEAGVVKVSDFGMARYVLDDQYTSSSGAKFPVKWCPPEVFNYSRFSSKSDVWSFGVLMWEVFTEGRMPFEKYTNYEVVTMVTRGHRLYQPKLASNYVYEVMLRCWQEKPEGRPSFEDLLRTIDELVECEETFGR

U-87 MG [26] = test: Antiproliferative activity against human U87MG cells after 72 hrs by DAPI staining based assay; assay type: functional, cell-based, U-87MG ATCC
[27] = 1-octanol-phosphate buffer distribution coefficient, log D of the compound at pH 7.4 after 1 hr by LC-MS/MS method; assay type: physicochemical
[28] = Dissociation constant, pKa of the compound at pH 3 to 11 by pH metric method; assay type: physicochemical
[29] = Half life in ICR mouse at 5 mg/kg, po administered as single dose by LC-MS/MS analysis; assay type: ADME, organism-based; details: in vivo
[30] = Tmax in CD-1 mouse brain at 10 mg/kg, po administered as single dose by LC-MS/MS analysis; assay type: ADME, organism-based
[31] = Half life in CD-1 mouse brain at 10 mg/kg, po administered as single dose by LC-MS/MS analysis; assay type: ADME, organism-based
U-87 MG [32] = test: Antitumor activity against luciferase-fused human U87MG cells orthotopically xenografted in nude mouse assessed as tumor growth inhibition at 25 mg/kg, po qd for 4 weeks by bioluminescence imaging relative to control; assay type: functional, U-87MG ATCC; details: 672 h, read-out: TGI

SMILES: CC1=Nc2c(F)cc(-c3nc(Nc4ccc(C5CCN(C)CC5)cn4)ncc3F)cc2C12CCCC2 [CROZBACICLIB]
- IC50 (CDK6/cyclin D3): 1 nM
- half-life [1]: 7.1 h
- half-life [2]: 8.5 h
- bioavailability [3]: 66%
- inhibition [4]: 43%
- inhibition [5]: 1%
- inhibition [6]: 28%
- inhibition [7]: -2%
- inhibition [8]: 3%
- inhibition [9]: 0%
- inhibition [10]: 2%
- inhibition [11]: 0%
- inhibition [12]: 101%
- inhibition [13]: 0%
- inhibition [14]: 5%
- inhibition [15]: 1%
- inhibition [16]: 3%
- inhibition [17]: 14%
- inhibition [18]: -1%
- inhibition [19]: 12%
- inhibition [20]: 4%
- inhibition [21]: 11%
- inhibition [22]: 0%
- inhibition [23]: 34%
- inhibition [24]: 0%
- inhibition [25]: 2%
- IC50 (U-87 MG [26]): 15.3 nM
- logD at 1 h [27]: 3.49
- pKa [28]: 8.19
- half-life [29]: 8.38 h
- Tmax [30]: 2 h
- half-life [31]: 6.38 h
- inhibition in vivo at 25 mg/kg (U-87 MG [32]): 96%
